Measurements: PubChem BioAssay (NCI)
Values joined by “and” are separate entries in the source; they are usually repeats but may differ in a detail not shown here. Identical values can stand only once.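 Step 1: Grow cells in 96-well plates. Step 2: Expose to compound for 48 hours at 5 concentrations. Step 3: Interpolate endpoints linearly; if unreached, use highest concentration. GI50 marks 50% less growth. TGI denotes the concentration required for complete inhibition of growth.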

Assays:
Experiment in all cases: NCI anticancer screen, dose series, 48 h
A549 NSCLC = system: A549 NSCLC
MOLT-4 leukemia = system: MOLT-4 leukemia
ACHN renal = system: ACHN renal
SF-268 CNS = system: SF-268 CNS
NCI-H226 lung = system: NCI-H226 lung
SK-OV-3 ovarian = system: SK-OV-3 ovarian
MALME-3M melanoma = system: MALME-3M melanoma
UACC-257 melanoma = system: UACC-257 melanoma
BT-549 breast = system: BT-549 breast
T-47D breast = system: T-47D breast

SMILES | TGI (A549 NSCLC) [µM] | TGI (MOLT-4 leukemia) | TGI (ACHN renal) | TGI (SF-268 CNS) | TGI (NCI-H226 lung) [µM] | TGI (SK-OV-3 ovarian) | TGI (MALME-3M melanoma) | TGI (UACC-257 melanoma) [µM] | GI50 (BT-549 breast) [µM] | TGI (BT-549 breast) [µM] | GI50 (A549 NSCLC) [µM] | GI50 (MOLT-4 leukemia) [µM] | GI50 (ACHN renal) [µM] | GI50 (SF-268 CNS) [µM] | GI50 (UACC-257 melanoma) [µM] | GI50 (T-47D breast) [µM] | TGI (T-47D breast) [µM] | GI50 (NCI-H226 lung) [µM] | GI50 (SK-OV-3 ovarian) | GI50 (MALME-3M melanoma) [µM]
O=CN1CCN(C=S)CC1 | > 100 | > 100 µM | > 100 µM | > 100 µM | > 100 | > 100 µM | > 100 µM | > 100 |  |  |  |  |  |  |  |  |  |  |  | 
CNC(=O)OCc1[nH]ccc2c(C)c3nc4ccc(OC)cc4c3cc12 | > 100 | 3.89 µM | 18 µM | > 100 µM | 18.7 | > 100 µM | > 77.8 µM | > 100 |  |  |  |  |  |  |  |  |  |  |  | 
COC(=O)C1=Cc2c(cc(OC)c(OC)c2OC)[C@H](c2ccc(OC)c(OC)c2OC)C1C(=O)OC (stereo partly drawn) | > 100 | > 100 µM | > 100 µM | > 100 µM | > 100 | > 100 µM | > 100 µM | > 100 |  |  |  |  |  |  |  |  |  |  |  | 
NC(N)=N/N=C/c1c(-c2ccc(Cl)c([N+](=O)[O-])c2)nc2ccccn12 | 2.99 | 3.64 µM | 34.9 µM | 2.93 µM |  |  |  | 31 | 0.119 | 1.18 | 1.63 | 1.68 | 11.3 | 1.35 | 6.76 | 2.08 | 5.01 |  |  | 
Clc1cc(Cl)cc(Nc2nc3ccccc3nc2-c2cccs2)c1 | > 100 | > 100 µM | 60.3 µM | > 100 µM | > 100 | 71.1 µM | > 100 µM | 60.4 |  |  |  |  |  |  |  |  |  |  |  | 
NC1=C(Cl)C(=O)c2ccccc2C1=O | 8.44 | 22.4 µM | 22.7 µM | 33.2 µM | 18.3 | 33.1 µM | 3.13 µM | 8.38 |  | 4.19 |  |  |  |  |  |  |  |  |  | 
COc1ccc2[nH]cc(-c3nc(-c4c[nH]c5ccncc45)cs3)c2c1 | 9.5 |  | 3.14 µM | 6.97 µM | 6.58 | 26.6 µM | 3.58 µM | 3.51 | 8.96 | 21.3 | 2.35 |  | 1.66 | 2.61 | 1.93 |  |  | 2.36 | 13.7 µM | 2
C[Si]12OCCCN(CCO1)CCO2 | > 100 | > 100 µM | > 100 µM | > 100 µM |  | > 100 µM | > 100 µM | > 100 |  |  |  |  |  |  |  |  |  |  |  | 
CC1CC2(CCC1OCc1ccccc1)OCCO2 (stereo not drawn) | > 100 | > 100 µM |  |  |  | > 100 µM | > 100 µM | > 100 |  |  |  |  |  |  |  |  |  |  |  | 
CC(=O)O[C@H]1CC[C@@]2(C)C(=CC[C@@H]3C2CC[C@]2(C)Nc4[nH]ncc4CC32)C1 (stereo partly drawn) | > 100 | 35.8 µM | > 100 µM |  | > 100 | > 100 µM | 86.1 µM | 30.8 |  |  |  |  |  |  |  |  |  |  |  | 
CN(C)S(=O)(=O)c1ccc(Nc2ccc(O)c3c2C(=O)c2c([N+](=O)[O-])ccc(O)c2C3=O)cc1 | > 100 | > 100 µM | > 100 µM | > 100 µM |  | > 100 µM | > 100 µM | > 100 |  | > 100 |  |  |  |  |  |  | > 100 |  |  | 
CN(C)CCNC(=O)c1nc([N+](=O)[O-])cn1C | > 100 | > 100 µM | > 100 µM | > 100 µM |  | > 100 µM | > 100 µM | > 100 |  | > 100 |  |  |  |  |  |  | > 100 |  |  | 
COc1ccccc1NC(=O)CC(=O)NNCC(=O)Nc1nnc(-c2ccccc2)o1 | > 100 | > 100 µM | > 100 µM | > 100 µM | > 100 | > 100 µM |  | > 100 |  |  |  |  |  |  |  |  |  |  |  | 
Cc1cc(NC(=O)NC(=O)c2ccccc2NC(=O)CN)ccc1Oc1ncc(Br)cn1 | 35.8 | 75 µM and > 100 µM | 40.7 µM and 80.3 µM | 43.2 µM and 29.5 µM |  | 35.8 µM and 13.9 µM | 75 µM and 89.6 µM | 38.4 |  |  |  | 0.0807 | 5.25 | 0.608 |  |  | 47.4 | 0.238 |  | < 0.01
CCC[CH2][Sn]1([CH2]CCC)[O]C(=O)CN=Cc2ccccc2[O]1 | 3.55 | 0.75 µM | 1.1 µM | 0.859 µM |  | 2.18 µM | 0.469 µM | 0.419 |  |  | 1.81 | 0.212 | 0.323 | 0.286 | 0.164 |  |  |  | 0.922 µM | 0.141
N#C[C@H]1Nc2ccccc2[C@@H](O)C1O (stereo partly drawn) | > 100 | > 100 µM | > 100 µM | > 100 µM |  | > 100 µM | > 100 µM | > 100 |  |  |  |  |  |  |  |  | > 100 |  |  | 

SMILES | TGI (A549 NSCLC) [µM] | TGI (MOLT-4 leukemia) | TGI (ACHN renal) | TGI (SF-268 CNS) | TGI (NCI-H226 lung) [µM] | TGI (SK-OV-3 ovarian) | TGI (MALME-3M melanoma) | TGI (UACC-257 melanoma) [µM] | GI50 (BT-549 breast) [µM] | TGI (BT-549 breast) [µM] | GI50 (A549 NSCLC) [µM] | GI50 (MOLT-4 leukemia) [µM] | GI50 (ACHN renal) [µM] | GI50 (SF-268 CNS) [µM] | GI50 (UACC-257 melanoma) [µM] | GI50 (T-47D breast) [µM] | TGI (T-47D breast) [µM] | GI50 (NCI-H226 lung) [µM] | GI50 (SK-OV-3 ovarian) | GI50 (MALME-3M melanoma) [µM]
CC1=CC2CC(C)C1(C)CCc1ccoc12 (stereo not drawn) | > 100 | > 100 µM | > 100 µM | > 100 µM |  | > 100 µM | > 100 µM | > 100 |  |  |  |  |  |  |  |  |  |  |  | 
N=C(N)c1ccc(-c2ccc(-c3ccc(F)cc3)o2)o1 | 3.3 | 4.68 µM | 2.97 µM | 4.67 µM | 9.71 | 7.14 µM | 3.26 µM | 3.69 | 2.27 | 7.19 | 1.65 | 1.6 | 1.6 | 1.92 | 1.98 |  |  | 2.82 | 2.32 µM | 1.63
CN1C(=O)C(c2c[nH]c3ccccc23)=C(c2c(-c3c[nH]c4ccccc34)[nH]c3ccccc23)C1=O | 13.9 |  | 13.9 µM | 19.5 µM |  | 13 µM |  | 13.2 |  |  | 3.83 |  | 3.4 | 4.07 | 3.59 | 4.72 | 66.8 |  | 3.14 µM | 
O=C1OCC2=C1C(c1cccc(C(F)(F)F)c1)c1cc3c(cc1N2CCO)CCC3 (stereo not drawn) | 8.04 | 15.5 µM | 9.23 µM | 7.15 µM | 9.43 | 8.64 µM | 10.5 µM | 15.2 | 0.219 | 5.32 | 0.201 | 0.27 | 0.441 | 0.266 | 6.5 |  |  | 1 | 0.179 µM | 0.714
Cc1c(O)c(=O)ccn1CCO | > 100 | > 100 µM | > 100 µM | > 100 µM | > 100 | > 100 µM | > 100 µM | > 100 |  |  |  |  |  |  |  |  |  |  |  | 
C=CCN(CC=C)CC(C(C)=O)C(c1ccccc1)c1c(O)c2ccccc2oc1=O (stereo not drawn) | > 100 | > 100 µM | > 100 µM | > 100 µM | > 100 | > 100 µM | > 100 µM | > 100 |  |  |  |  |  |  |  |  |  |  |  | 
O=C(O)c1ccc(C2C3C=CC(C3)C2[N+](=O)[O-])cc1 (stereo not drawn) | > 100 | > 100 µM |  | > 100 µM | > 100 | > 100 µM | > 100 µM | > 100 |  |  |  |  |  |  |  |  |  |  |  | 
Cn1c(=O)oc2cc(C3CCC(=O)N3Cc3ccc(Cl)cc3)ccc21 (stereo not drawn) | > 100 | > 100 µM | > 100 µM | > 100 µM | > 100 | > 100 µM | > 100 µM | > 100 |  |  |  |  |  |  |  |  |  |  |  | 
COc1ccccc1NC(=O)C1=C(C)NC(C)=C(C(=O)Nc2ccccc2OC)C1c1cccc2c1OCO2 | > 100 | > 100 µM | > 100 µM | > 100 µM | > 100 | > 100 µM | > 100 µM | > 100 |  |  |  |  |  |  |  |  |  |  |  | 
O=C(O)CCCNS(=O)(=O)c1ccc2ccccc2c1 | > 100 | > 100 µM | > 100 µM | > 100 µM | > 100 | > 100 µM | > 100 µM | > 100 |  |  |  |  |  |  |  |  |  |  |  | 
CC(=O)OC12CC(C)C3(O)C4C=C(C)C(=O)[C@@]4(O)CC(CO)=C[C@H]3C1C2(C)C (stereo partly drawn) |  | > 1000 µM | > 1000 µM | > 1000 µM | > 1000 | > 1000 µM | > 1000 µM | > 1000 | > 1000 | > 1000 |  |  | > 1000 | > 1000 | > 1000 |  |  | > 1000 |  | > 1000
COc1cc(OC)cc(-c2cncn2-c2ccc(-c3nc4cc(OC)cc(OC)c4s3)cc2)c1 |  |  | > 100 µM | > 100 µM | > 100 | > 100 µM |  | > 100 | 3.09 | > 100 |  |  | > 100 | 11.3 | > 100 | 5.77 | > 100 | 18.5 | 4.69 µM | 
CCOC(=O)c1cnc2cc3cccccc3n2c1=O | > 100 | > 100 µM | > 100 µM | > 100 µM | > 100 |  |  | > 100 |  |  |  |  |  |  |  |  |  |  |  | 
COc1cc2c3c(n(C)c(=O)c2cc1OC)-c1cc2c(cc1/C3=C/[C@H](N)CCCCN)OCO2 | 24.5 | > 100 µM | 3.16 µM | 3.97 µM |  | > 24.7 µM | 0.7 µM | 11.1 |  | 2.57 | 0.622 |  | 0.637 | 0.315 | 1.98 | 4.85 | > 100 |  | 1.4 µM | 0.0491
CCCCCCCCCCCCCCCCn1cc[n+](Cc2ccccc2)c1C | 2.57 | > 100 µM | 7 µM | 1.77 µM |  | 4.67 µM and 1.81 µM | 2.61 µM | 11.2 |  |  | 1.15 | 2.46 | 1.89 | 0.548 | 1.27 | 0.207 | 0.951 |  | 1.71 µM and 0.5 µM | 0.809
